US4140707A, “Malonato platinum anti-tumor compounds” (priority 1977, dated 1979)

Key:
Sarcoma 180 [1] = experiment: Antitumor activity, solid Sarcoma 180 (Table I), T/C tumor weight ratio, sacrifice day 10; assay type: in vivo, female Swiss white mice
Experimental: The compounds of the invention were tested for anti-tumor activity using our standard screening tumor, solid sarcoma 180 tumer in female Swiss white mice, following standard protocols for this testing as set by the National Cancer Institute. (Cancer Chemotherapy Rep., 25(1962)).
For these tests an S 180 tumor taken from a sacrificed mouse was disected free of superfluous tissue and cut under sterile conditions into approximately 10 milligram size pieces. These tissue pieces were then implanted by trocar in the left axillary region, subcutaneously, in new mice. The mice were, on the average, approximately four weeks old and weighed 18-20 grams. Taking day 0 as the day of implant, the animals were sacrificed on day 10. The tumors were excised and weighed and the ratio of the weights of the tumors in mice in the treated animals to the control set of animals was obtained. This ratio, multiplied by 100, is given as the T/C ratio in Table I.
For the first set of tests the coordination compound was freshly dissolved in sterile distilled water and injected intraperitoneally on day 1 into each of the test mice. The volume of the injection was usually 1/2 ml. In some cases, in order to get an active dose into the animal where the chemical was not soluble in this amount of solvent, a fine dispersion was prepared of the dose needed for the test. Thus, some of our test results were obtained on animals where a slurry of the compound was injected. These are so noted in Table I below. In addition, for some of the compounds, there was injected about 1 ml of solution, either in one single injection, or in 2 injections given a few hours apart of 1/2 ml each. These injections were initially given in 4 different dose levels for each new compound with 6 mice in each dose level. The tests covered a dose range from a low ineffective dose, to an upper dose level which produced some deaths within the time period of the experiment.

Sarcoma 180 [2] = experiment: Large Sarcoma 180 regressions (Table II), injection day 8, observed approximately 60 days; assay type: in vivo, female Swiss white mice; settings: single i.p. day 8, H2O solution
Experimental: In addition to the day 1 injections described above, in a number of cases injections were delayed until day 8 of tumor growth. In these cases the tumor was usually at least larger than 1/2 gm, as estimated by palpation. The animals were then injected and observed for a period of approximately 60 days. Activity was measured by the number of animals whose tumors had regressed to the vanishing point, while still allowing the animal to survive for this time period. Such test results are described in TABLE II below.

[3] = test system: Walker 256 Carcinosarcoma; experiment: Confirmatory antitumor activity, Walker 256 Carcinosarcoma (Table III); assay type: in vivo, Rat; settings: i.p.
Experimental: (§1) Confirmatory tests of antitumor activity against the Walker 256 Circinosarcoma in rats, and the ADJ/PC6A tumor in mice were conducted. The initial test results are shown in Table III and confirm the potent action of the compounds of the invention against these other tumor systems.

ADJ/PC6A = experiment: Confirmatory antitumor activity, ADJ/PC6A (Table III); assay type: in vivo, Mouse; settings: i.p.
Experimental: as §1

L1210 = experiment: Confirmatory antitumor activity at the National Cancer Institute, L1210 (Table IV); assay type: in vivo, Mice
Source text: Samples of the malonato diammine and malonato ethylene diamino complexes of platinum(II) were submitted to the Drug Research and Development Branch of the National Cancer Institute for screening for antitumor activity against the L1210 tumor in mice. They confirm the activity of the compounds of the invention.

[4] = 20 mg/kg, single i.p. day 1, vehicle not noted
[5] = 40 mg/kg, single i.p. day 1, vehicle not noted
[6] = 60 mg/kg, single i.p. day 1, vehicle not noted
[7] = 80 mg/kg, single i.p. day 1, vehicle not noted
[8] = 100 mg/kg, single i.p. day 1, vehicle not noted
[9] = 120 mg/kg, single i.p. day 1, vehicle not noted
[10] = 160 mg/kg, single i.p. day 1, vehicle not noted
[11] = 30 mg/kg, single i.p. day 1, solution in H2O
[12] = 40 mg/kg, single i.p. day 1, solution in H2O
[13] = 50 mg/kg, single i.p. day 1, solution in H2O
[14] = 60 mg/kg, single i.p. day 1, solution in H2O
[15] = 70 mg/kg, single i.p. day 1, solution in H2O
[16] = 80 mg/kg, single i.p. day 1, solution in H2O
[17] = 90 mg/kg, single i.p. day 1, vehicle not noted
[18] = 110 mg/kg, single i.p. day 1, vehicle not noted
[19] = 45 mg/kg, single i.p. day 1, vehicle not noted
[20] = 75 mg/kg, single i.p. day 1, vehicle not noted
[21] = 140 mg/kg, single i.p. day 1, vehicle not noted
[22] = 180 mg/kg, single i.p. day 1, vehicle not noted
[23] = 10 mg/kg, single i.p. day 1, solution in H2O
[24] = 20 mg/kg, single i.p. day 1, solution in H2O
[25] = 45 mg/kg, single i.p. day 1, solution in H2O
[26] = 55 mg/kg, single i.p. day 1, solution in H2O
[27] = 10 mg/kg, single injection day 1 in oil
[28] = 20 mg/kg, single injection day 1 in oil
[29] = 40 mg/kg, single injection day 1 in oil
[30] = dose 4, single injection day 25 in oil
[31] = dose 20, single injection day 25 in oil
[32] = dose 100, single injection day 25 in oil
[33] = 90 mg/kg, single i.p. day 1, solution in H2O

N.N.O=C([O-])C1(C(=O)[O-])CCC1.[Pt+4] [1,1-cyclobutanedicarboxylate diammineplatinum (II)]
No. of Deaths (Sarcoma 180 [1]; [4]): 0
T/C (Sarcoma 180 [1]; [4]): 71
No. of Deaths (Sarcoma 180 [1]; [5]): 0
T/C (Sarcoma 180 [1]; [5]): 60
No. of Deaths (Sarcoma 180 [1]; [6]): 0
T/C (Sarcoma 180 [1]; [6]): 38
No. of Deaths (Sarcoma 180 [1]; [7]): 0
T/C (Sarcoma 180 [1]; [7]): 42
No. of Deaths (Sarcoma 180 [1]; [8]): 0
T/C (Sarcoma 180 [1]; [8]): 69
No. of Deaths (Sarcoma 180 [1]; [9]): 0
T/C (Sarcoma 180 [1]; [9]): 18
No. of Deaths (Sarcoma 180 [1]; [10]): 4
T/C (Sarcoma 180 [1]; [10]): 62

CC1C(=O)[O][Pt]([NH2])([NH2])[O]C1=O [Methylmalonatodiammineplatinum(II)]
No. of Deaths (Sarcoma 180 [1]; [11]): 0
T/C (Sarcoma 180 [1]; [11]): 39
No. of Deaths (Sarcoma 180 [1]; [12]): 0
T/C (Sarcoma 180 [1]; [12]): 26
No. of Deaths (Sarcoma 180 [1]; [13]): 0
T/C (Sarcoma 180 [1]; [13]): 35
No. of Deaths (Sarcoma 180 [1]; [14]): 0
T/C (Sarcoma 180 [1]; [14]): 6
No. of Deaths (Sarcoma 180 [1]; [15]): 3/6
T/C (Sarcoma 180 [1]; [15]): 124
No. of Deaths (Sarcoma 180 [1]; [16]): 6/6

CCC1C(=O)[O][Pt]2([NH]CC[NH]2)[O]C1=O [ethylmalonatoethylenediamineplatinum (II)]
No. of Deaths (Sarcoma 180 [1]; [5]): 0
T/C (Sarcoma 180 [1]; [5]): 72
No. of Deaths (Sarcoma 180 [1]; [6]): 0
T/C (Sarcoma 180 [1]; [6]): 81
No. of Deaths (Sarcoma 180 [1]; [7]): 0
T/C (Sarcoma 180 [1]; [7]): 79
No. of Deaths (Sarcoma 180 [1]; [17]): 0
T/C (Sarcoma 180 [1]; [17]): 47
No. of Deaths (Sarcoma 180 [1]; [8]): 1
T/C (Sarcoma 180 [1]; [8]): 55
No. of Deaths (Sarcoma 180 [1]; [18]): 0
T/C (Sarcoma 180 [1]; [18]): 41
No. of Deaths (Sarcoma 180 [1]; [9]): 0
T/C (Sarcoma 180 [1]; [9]): 58

CCC(C(=O)[O-])C(=O)[O-].N.N.[Pt+2] [ethylmalontodiammineplatinum(II)]
No. of Deaths (Sarcoma 180 [1]; [11]): 0
T/C (Sarcoma 180 [1]; [11]): 57
No. of Deaths (Sarcoma 180 [1]; [12]): 0
T/C (Sarcoma 180 [1]; [12]): 43
No. of Deaths (Sarcoma 180 [1]; [13]): 0
T/C (Sarcoma 180 [1]; [13]): 47
No. of Deaths (Sarcoma 180 [1]; [14]): 0
T/C (Sarcoma 180 [1]; [14]): 39
No. of Deaths (Sarcoma 180 [1]; [15]): 0
T/C (Sarcoma 180 [1]; [15]): 17
No. of Deaths (Sarcoma 180 [1]; [16]): 0
T/C (Sarcoma 180 [1]; [16]): 16

CC(N)CN.O=C([O-])CC(=O)[O-].[Pt+2] [malonato-1,2 propylenediamineplatinum (II)]
No. of Deaths (Sarcoma 180 [1]; [19]): 0
T/C (Sarcoma 180 [1]; [19]): 50
No. of Deaths (Sarcoma 180 [1]; [6]): 1
T/C (Sarcoma 180 [1]; [6]): 9
No. of Deaths (Sarcoma 180 [1]; [20]): 3
T/C (Sarcoma 180 [1]; [20]): 16
No. of Deaths (Sarcoma 180 [1]; [17]): 5

NCCCN.O=C([O-])CC(=O)[O-].[Pt+2] [malonato-1,3 propylenediamineplatinum (II)]
No. of Deaths (Sarcoma 180 [1]; [4]): 0
T/C (Sarcoma 180 [1]; [4]): 69
No. of Deaths (Sarcoma 180 [1]; [5]): 0
T/C (Sarcoma 180 [1]; [5]): 79
No. of Deaths (Sarcoma 180 [1]; [6]): 0
T/C (Sarcoma 180 [1]; [6]): 21
No. of Deaths (Sarcoma 180 [1]; [7]): 1
T/C (Sarcoma 180 [1]; [7]): 35

CN.CN.O=C([O-])CC(=O)[O-].[Pt+2] [malonatobis(methylamine) platinum (II)]
No. of Deaths (Sarcoma 180 [1]; [7]): 0
T/C (Sarcoma 180 [1]; [7]): 58
No. of Deaths (Sarcoma 180 [1]; [8]): 0
T/C (Sarcoma 180 [1]; [8]): 53
No. of Deaths (Sarcoma 180 [1]; [9]): 0
T/C (Sarcoma 180 [1]; [9]): 28
No. of Deaths (Sarcoma 180 [1]; [21]): 0
T/C (Sarcoma 180 [1]; [21]): 25
No. of Deaths (Sarcoma 180 [1]; [10]): 1
T/C (Sarcoma 180 [1]; [10]): 17
No. of Deaths (Sarcoma 180 [1]; [22]): 1
T/C (Sarcoma 180 [1]; [22]): 19

NCCN.O=C([O-])CC(=O)[O-].[Pt+2] [malonatoethylenediamineplatinum (II)]
No. of Deaths (Sarcoma 180 [1]; [23]): 0
T/C (Sarcoma 180 [1]; [23]): 88
No. of Deaths (Sarcoma 180 [1]; [24]): 0
T/C (Sarcoma 180 [1]; [24]): 58
No. of Deaths (Sarcoma 180 [1]; [12]): 0
T/C (Sarcoma 180 [1]; [12]): 18
No. of Deaths (Sarcoma 180 [1]; [25]): 0
T/C (Sarcoma 180 [1]; [25]): 49
No. of Deaths (Sarcoma 180 [1]; [13]): 0
T/C (Sarcoma 180 [1]; [13]): 35
No. of Deaths (Sarcoma 180 [1]; [26]): 0
T/C (Sarcoma 180 [1]; [26]): 38
No. of Deaths (Sarcoma 180 [1]; [14]): 3/6
T/C (Sarcoma 180 [1]; [14]): 15
No. of Deaths (Sarcoma 180 [1]; [6]): 0
T/C (Sarcoma 180 [1]; [6]): 80
No. of Deaths (Sarcoma 180 [1]; [16]): 3/6
T/C (Sarcoma 180 [1]; [16]): 24
No. of Deaths (Sarcoma 180 [1]; [7]): 0
T/C (Sarcoma 180 [1]; [7]): 138
No. of Deaths (Sarcoma 180 [1]; [8]): 0
T/C (Sarcoma 180 [1]; [8]): 85
No. of Deaths (Sarcoma 180 [1]; [9]): 0
T/C (Sarcoma 180 [1]; [9]): 50
Deaths (Sarcoma 180 [2]; 40 mg/kg): 3
Total Number of Regressions (Sarcoma 180 [2]; 40 mg/kg): 3
Deaths (Sarcoma 180 [2]; 45 mg/kg): 5
Total Number of Regressions (Sarcoma 180 [2]; 45 mg/kg): 1
Deaths (Sarcoma 180 [2]; 50 mg/kg): 4
Total Number of Regressions (Sarcoma 180 [2]; 50 mg/kg): 2
Deaths (Sarcoma 180 [2]; 60 mg/kg): 3
Total Number of Regressions (Sarcoma 180 [2]; 60 mg/kg): 3
% Inhibition [3, 27]: 1%
Deaths [3, 27]: 0
% Inhibition [3, 28]: 25%
Deaths [3, 28]: 0
% Inhibition [3, 29]: 100%
Deaths [3, 29]: 0
Deaths ([3]; 80 mg/kg, single injection day 1 in oil): 0
% Inhibition ([3]; dose 80, single injection day 1 in oil): 100%
Deaths ([3]; dose 160, single injection day 1 in oil): all
% Inhibition (ADJ/PC6A; [30]): 1.3%
Deaths (ADJ/PC6A; [30]): 0
% Inhibition (ADJ/PC6A; [31]): 94%
Deaths (ADJ/PC6A; [31]): 0
% Inhibition (ADJ/PC6A; [32]): 100%
Deaths (ADJ/PC6A; [32]): 0
Deaths (ADJ/PC6A; dose 500, single injection day 25 in oil): all
% Increase in Lifespan (L1210; 16.5 mg/kg, i.p. daily days 1-9, repeat test): 160%
% Increase in Lifespan (L1210; 25 mg/kg, i.p. daily days 1-9): 160%

CC1C(=O)[O][Pt]2([NH]CC[NH]2)[O]C1=O [methylmalonatoethylenediamineplatinum (II)]
No. of Deaths (Sarcoma 180 [1]; [11]): 0
T/C (Sarcoma 180 [1]; [11]): 78
No. of Deaths (Sarcoma 180 [1]; [12]): 0
T/C (Sarcoma 180 [1]; [12]): 80
No. of Deaths (Sarcoma 180 [1]; [13]): 0
T/C (Sarcoma 180 [1]; [13]): 51
No. of Deaths (Sarcoma 180 [1]; [14]): 0
T/C (Sarcoma 180 [1]; [14]): 26
No. of Deaths (Sarcoma 180 [1]; [15]): 1
T/C (Sarcoma 180 [1]; [15]): 20
No. of Deaths (Sarcoma 180 [1]; [33]): 1
T/C (Sarcoma 180 [1]; [33]): 4
